Results reported in US20130143929A1, “FUNGICIDAL IMIDAZOLES” (EI DU PONT DE NEMOURS AND COMPANY, priority 2010, published 2013).
Marks after values point to notes of the source that are not given here.

Columns and labels:
Assay type in all cases: in vivo
[1] = system: Puccinia recondite f. sp. tritici (the causal agent of wheat leaf rust); experiment: Test A: wheat leaf rust, preventive spray on wheat seedlings, visual disease rating; settings: wheat leaf rust, preventive spray on wheat seedlings
Summary of the method: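 Wheat seedlings were sprayed to run-off with compound suspended in acetone/water containing 250 ppm Trem 014 (200 ppm ≈ 800 g/ha; some at 40 ppm). Puccinia recondite spores were inoculated the next day. Plants were held 24 h saturated at 20° C, then 7 days at 20° C, and disease control was rated visually on a 0–100 scale against controls.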

[2] = system: Septoria tritici (the causal agent of wheat leaf blotch); experiment: Test B: wheat leaf blotch, preventive spray on wheat seedlings, visual disease rating; settings: wheat leaf blotch, preventive spray on wheat seedlings
Summary of the method: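 Wheat seedlings sprayed to run-off with compound suspension (acetone/water with 250 ppm Trem 014; 200 ppm ≈ 800 g/ha, some at 40 ppm), inoculated next day with Septoria tritici spores. 48 h saturated humidity at 24 °C, then 19 days at 20 °C; visual rating, 100 = full control.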

[3] = system: Botrytis cinerea (the causal agent of tomato Botrytis); experiment: Test C: tomato Botrytis, preventive spray on tomato seedlings, visual disease rating; settings: tomato Botrytis, preventive spray on tomato seedlings
Summary of the method: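 Test suspension (acetone/water with 250 ppm Trem 014; 200 ppm equivalent to 800 g/ha) sprayed to run-off on tomato seedlings; B. cinerea spores inoculated next day. After 48 h saturated humidity at 20° C then 3 days at 24° C, disease rated visually as % control relative to untreated controls (0–100).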

[4] = system: Blumeria graminis f. sp. tritici (also known as Erysiphe graminis f. sp. tritici, the causal agent of wheat powdery mildew); experiment: Test D: wheat powdery mildew, preventive spray on wheat seedlings, visual disease rating; settings: wheat powdery mildew, preventive spray on wheat seedlings
Summary of the method: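 Compound suspended in acetone/water (50/50) with 250 ppm Trem 014 and sprayed to run-off on wheat seedlings (200 ppm ≈ 800 g/ha), then inoculated next day with spore dust. Disease rated visually after 8 days at 20 °C as % control relative to untreated plants (0-100).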

[5] = no asterisk (standard test suspension concentration, not 40 ppm)
[6] = asterisk: 40 ppm test suspension

Row | SMILES | Test A rating (100 = 100% disease control, 0 = no disease control relative to the controls) [1, 5] | Test B rating (100 = 100% disease control, 0 = no disease control relative to the controls) [2, 5] | Test C rating (100 = 100% disease control, 0 = no disease control relative to the controls) [3, 5] | Test D rating (100 = 100% disease control, 0 = no disease control relative to the controls) [4, 5] | Test A rating (100 = 100% disease control, 0 = no disease control relative to the controls) [1, 6] | Test B rating (100 = 100% disease control, 0 = no disease control relative to the controls) [2, 6] | Test C rating (100 = 100% disease control, 0 = no disease control relative to the controls) [3, 6] | Test D rating (100 = 100% disease control, 0 = no disease control relative to the controls) [4, 6]
1 | Cc1nc(Br)c(C(O)c2ccc(F)cc2Cl)n1-c1ccc(F)cc1Cl (stereo not drawn) [compound 142] | 100% | 100% | 99% | 71% | – | – | – | –
2 | COc1ccc(C(O)c2c(Cl)nc(C)n2-c2c(F)cccc2F)c(Cl)c1 (stereo not drawn) [compound 143] | – | – | – | – | 100* % | 100* % | 99* % | 99* %
3 | COc1ccc(C(O)c2c(Br)nc(C)n2-c2c(F)cccc2F)c(Cl)c1 (stereo not drawn) [compound 144] | – | – | – | – | 100* % | 100* % | 100* % | 99* %
4 | Cc1ccc(C(O)c2c(Br)nc(C)n2-c2c(F)cccc2F)c(C)c1 (stereo not drawn) [compound 145] | – | – | – | – | 100* % | 100* % | 51* % | 98* %
5 | COc1cc(F)c(C(O)c2c(Br)nc(C)n2-c2c(F)cccc2F)c(F)c1 (stereo not drawn) [compound 147] | – | – | – | – | 100* % | 100* % | 99* % | 0* %
6 | OC(c1ccc(F)cc1Cl)c1c(Br)nc(C2CC2)n1-c1c(F)cccc1Br (stereo not drawn) [compound 150] | 85% | 100% | 0% | 27% | – | – | – | –
7 | OC(c1ccc(F)cc1Cl)c1c(Cl)nc(C2CC2)n1-c1c(F)cccc1Br (stereo not drawn) [compound 151] | 74% | 100% | 0% | 64% | – | – | – | –
8 | OC(c1ccc(F)cc1F)c1cnc(C2CC2)n1-c1c(F)cccc1Br (stereo not drawn) [compound 152] | 74% | 0% | 0% | 0% | – | – | – | –
9 | COc1cc(F)c(C(O)c2c(Cl)nc(C)n2-c2ccc(F)cc2Cl)c(F)c1 (stereo not drawn) [compound 153] | 100% | 100% | – | 94% | – | – | 99* % | –
10 | OC(c1ccc(F)cc1F)c1c(Cl)nc(Cl)n1-c1c(F)cc(Cl)cc1F (stereo not drawn) [compound 154] | – | – | – | – | 100* % | 100* % | 100* % | 89* %
11 | Cc1nc(Cl)c(C(O)c2c(F)cc(F)cc2F)n1-c1ccc(F)cc1Br (stereo not drawn) [compound 155] | 100% | 100% | 99% | 0% | – | – | – | –
12 | Cc1nc(Cl)c(C(O)c2c(F)cc(Cl)cc2F)n1-c1ccc(F)cc1Cl (stereo not drawn) [compound 156] | 98% | 92% | 16% | 0% | – | – | – | –
13 | Cc1cc(Cl)ccc1C(O)c1c(Cl)nc(C)n1-c1c(F)cccc1F (stereo not drawn) [compound 159] | – | – | – | – | 99* % | 100* % | 99* % | 97* %
14 | Cc1cc(Cl)ccc1C(O)c1c(Br)nc(C)n1-c1c(F)cccc1F (stereo not drawn) [compound 161] | – | – | – | – | 92* % | 100* % | 94* % | 84* %
15 | Cc1nc(Cl)n(-c2ccc(F)cc2F)c1C(O)c1ccc(F)cc1F (stereo not drawn) [compound 162] | 100% | 100% | 100% | 98% | – | – | – | –
16 | Cc1nc(Cl)n(-c2ccc(F)cc2F)c1C(O)c1ccc(Cl)cc1 (stereo not drawn) [compound 163] | 98% | 100% | 100% | 13% | – | – | – | –
17 | Cc1cc(C#N)ccc1C(O)c1c(Cl)nc(C)n1-c1c(F)cccc1F (stereo not drawn) [compound 164] | – | – | – | – | 93* % | 100* % | 0* % | 0* %
18 | Cc1cc(C#N)ccc1C(O)c1c(Br)nc(C)n1-c1c(F)cccc1F (stereo not drawn) [compound 165] | – | – | – | – | 80* % | 100* % | 8* % | 13* %
19 | Cc1nc(Cl)c(C(O)c2ccc(F)cc2Cl)n1-c1c(F)cc(F)cc1F (stereo not drawn) [compound 166] | – | – | – | – | 100* % | 100* % | 100* % | 43* %
20 | Cc1nc(C)n(-c2c(F)cc(F)cc2F)c1C(O)c1ccc(F)cc1Cl (stereo not drawn) [compound 169] | – | – | – | – | 100* % | 100* % | 40* % | 0* %
21 | Cc1ncc(C(O)c2c(F)cc(F)cc2F)n1-c1ccc(F)cc1Cl (stereo not drawn) [compound 170] | 99% | 73% | 63% | 0% | – | – | – | –
